Measured values reported in PMC6009910, “Tertiary amine derivatives of chlorochalcone as acetylcholinesterase (AChE) and buthylcholinesterase (BuChE) inhibitors: the influence of chlorine, alkyl amine side chain and α,β-unsaturated ketone group” (Journal of Enzyme Inhibition and Medicinal Chemistry, 2016).
Values joined by “and” are separate entries in the source; they are usually repeats but may differ in a detail not shown here. Equal values may be shown once. “Also recorded” adds a separate entry of the source.

Tests used:
[1] = biological target: T1, BuChE (Rattus norvegicus, UniProt Q9JKC1); test: BuChE inhibition assay (Ellman method); format: biochemical, Sprague–Dawley rat
T1 construct: The brain and serum of Sprague–Dawley rat was used as the resource of AChE and BuChE, respectively; from tissue; host or cells: Sprague-Dawley rat serum
Procedure: (§1) AChE/BuChE activity assays were conducted by Ellman method with light modification. The brain and serum of Sprague–Dawley rat was used as the resource of AChE and BuChE, respectively. Each compound was dissolved in Tween 80 and diluted with water to various concentrations immediately before use. The reaction mixture containing 40 µL AChE/BuChE, 100 µL acetylthiocholine iodide/S-Butyrylthiocholine iodide, 2.76 mL Na2HPO4/NaH2PO4 buffer (pH 8.0, 0.1 mol/L), and 100 µL different concentrations of test compounds were incubated at 30 °C for 25 min. Then the reaction was terminated via adding 100 µL 20% sodium dodecyl sulfate (SDS), then 100 µL 10 mmol/L 5, 5'-Dithiobis-(2-nitrobenzoic acid) (DTNB) was added to generate the yellow anion 5-thio-2-nitro-benzoic acid. The absorbance of each assay mixture was measured at 412 nm by UV spectroscopy. The IC50 values were calculated by Bliss method and expressed as mean ± SD of the replicates.

[2] = biological target: T2, AChE (Rattus norvegicus, UniProt P37136); test: biochemical; format: biochemical; conditions: for IC50: rat brain AChE, means ± SD of three experiments; for Selectivity for AChE, IC50 (BuChE)/IC50 (AChE): ratio IC50 (BuChE)/IC50 (AChE)
T2 construct: The brain and serum of Sprague–Dawley rat was used as the resource of AChE and BuChE, respectively; from tissue; host or cells: Sprague-Dawley rat brain
Procedure: as §1

[3] = Log p measurement by shake flask method; format: physicochemical; conditions: octanol / PBS (pH =7.4), triplicate
Procedure: Log p, defined as the logarithm of octanol-water partition coefficient is an important parameter to evaluate the lipophilicify of compounds. It can be calculated by determining the concentration of compound in octanol phase and water phase until the partition equilibrium was completed. In present investigation, log p of compounds 4a∼4l was measured by the shake flask method with slight modification, and PBS (pH =7.4) was used as the water phase. The mobile phase was methanol: 0.1% triethylamine (TEA)/80:20 (v/v), at a flow rate of 1.0 mL.min^−1 through a C18 column ([…] ×4.6 mm, 5 µm) at 32 °C with detect wavelength 318 nm. Experiments were conducted in triplicate and log p values were calculated.

[4] = biological target: T2, AChE; test: Kinetic studies of AChE inhibition (Lineweaver–Burk); format: biochemical
Procedure: as §1, with “replicates. Rivastigmine was used as the control drug.” for “replicates.”
Kinetic experiment was conducted by a reported method with some modifications. Compound 4l was added into the assay solution and pre-incubated with the enzyme at 30 °C, followed by the addition of 100-µL acetylthiocholine iodide including five concentrations. The assay solution contained 100 µL compound 4l, 100 µL DTNB, 2.76 mL 0.1 mol/L Na2HPO4/NaH2PO4 buffer (pH 8.0). Kinetic profile of AChE was determined by UV spectrophotometer at 412 nm. Additionally, the blank control experiment was conducted with the vehicle to replace compound 4l solution.

T2 sequence (P37136 32-614): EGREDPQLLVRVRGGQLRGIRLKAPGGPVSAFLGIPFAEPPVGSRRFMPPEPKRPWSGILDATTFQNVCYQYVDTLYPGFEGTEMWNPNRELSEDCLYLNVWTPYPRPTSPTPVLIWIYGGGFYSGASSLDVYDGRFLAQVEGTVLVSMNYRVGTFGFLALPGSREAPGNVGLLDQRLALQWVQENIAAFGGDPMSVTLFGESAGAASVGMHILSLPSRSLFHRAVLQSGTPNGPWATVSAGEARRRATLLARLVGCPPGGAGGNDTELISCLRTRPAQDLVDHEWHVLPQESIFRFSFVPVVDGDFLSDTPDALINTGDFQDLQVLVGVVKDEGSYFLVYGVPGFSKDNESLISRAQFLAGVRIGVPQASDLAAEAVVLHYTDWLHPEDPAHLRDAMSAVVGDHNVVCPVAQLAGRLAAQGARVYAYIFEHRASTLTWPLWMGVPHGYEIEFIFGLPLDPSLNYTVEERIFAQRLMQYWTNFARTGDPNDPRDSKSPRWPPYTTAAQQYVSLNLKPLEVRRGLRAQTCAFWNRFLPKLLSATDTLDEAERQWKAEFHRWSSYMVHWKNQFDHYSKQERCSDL
T1 sequence (Q9JKC1 24-597): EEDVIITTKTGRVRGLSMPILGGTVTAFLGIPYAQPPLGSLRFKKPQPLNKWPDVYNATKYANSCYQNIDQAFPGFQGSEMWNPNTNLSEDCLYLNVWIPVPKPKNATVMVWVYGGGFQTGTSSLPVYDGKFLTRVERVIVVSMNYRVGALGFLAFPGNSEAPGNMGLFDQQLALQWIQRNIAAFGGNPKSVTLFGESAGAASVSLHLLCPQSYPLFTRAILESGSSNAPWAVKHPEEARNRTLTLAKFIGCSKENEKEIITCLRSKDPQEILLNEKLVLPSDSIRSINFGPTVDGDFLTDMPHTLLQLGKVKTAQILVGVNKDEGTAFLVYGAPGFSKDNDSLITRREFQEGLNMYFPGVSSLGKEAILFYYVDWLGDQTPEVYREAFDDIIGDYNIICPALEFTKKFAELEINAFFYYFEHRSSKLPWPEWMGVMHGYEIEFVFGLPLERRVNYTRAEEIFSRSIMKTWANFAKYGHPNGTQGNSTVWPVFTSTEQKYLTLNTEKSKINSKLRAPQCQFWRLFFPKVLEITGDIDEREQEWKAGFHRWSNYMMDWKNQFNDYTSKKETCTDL

SMILES | IC50 [1] | IC50 [2] | Selectivity for AChE, IC50 (BuChE)/IC50 (AChE) [2] | logP [3] | further results
CCN(CC)CCOc1ccc(C(=O)/C=C/c2ccc(Cl)cc2)cc1 [Compound 4f, (E)-3–(4-chlorophenyl)-1–(4-(2-(diethylamino)ethoxy)phenyl)prop-2-en-1-one] | 101 ± 17.2 µM | 3.78 ± 0.39 µM | 26.7 | 1.69 | –
CC(=O)N1N=C(c2ccc(OCCN3CCCC3)cc2)CC1c1cccc(Cl)c1 (stereo not shown) [Compound 5c, 1–(5-(3-Chlorophenyl)-3–(4-(2-(pyrrolidin-1-yl)ethoxy)phenyl)-4,5-dihydro-1H-pyrazol-1-yl)ethan-1-one] | 27.6 ± 2.58 µM | 2.41 ± 0.34 µM | 11.5 | – | –
CCN(CC)CCOc1ccc(C(=O)/C=C/c2cccc(Cl)c2)cc1 [Compound 4e, (E)-3–(3-chlorophenyl)-1–(4-(2-(diethylamino)ethoxy)phenyl)prop-2-en-1-one] | 80.2 ± 7.18 µM | 5.83 ± 0.42 µM | 13.8 | 1.62 | –
O=C(/C=C/c1ccc(Cl)cc1)c1ccc(OCCN2CCCC2)cc1 [Compound 4l, (E)-3–(4-chlorophenyl)-1–(4-(2-(pyrrolidin-1-yl)ethoxy)phenyl)prop-2-en-1-one] | 113 ± 18.2 µM | 0.17 ± 0.06 µM | 667 and 667.2 | 1.83 | noncompetitive constant (Ki’) ([4]; AChE, mixed-type inhibition): 2.95 µM; inhibition type ([4]; Lineweaver–Burk analysis, Km increased and Vmax decreased with concentration): mixed-type inhibition; also recorded: mixed-type inhibitor; Ki’ ([4]; Supplement Table 2): 2.95 µM; Vmax ([4]; compound 4l at 0.22 µM): 0.0273 ΔAmin-1; Vmax ([4]; compound 4l at 0.43 µM): 0.0263 ΔAmin-1; Vmax ([4]; compound 4l at […]): 0.0230 ΔAmin-1; Ki ([4]; read-out: competitive inhibition constant (Ki)): 0.38 µM
CN(C)CCOc1ccc(C(=O)/C=C/c2ccccc2Cl)cc1 [Compound 4a, (E)-3–(2-chlorophenyl)-1–(4-(2-(dimethylamino)ethoxy)phenyl)prop-2-en-1-one] | 41.1 ± 2.31 µM | 2.11 ± 0.38 µM | 19.5 | 1.75 | –
CN(C)CCOc1ccc(C(=O)/C=C/c2ccc(Cl)cc2)cc1 [Compound 4c, (E)-3–(4-chlorophenyl)-1–(4-(2-(dimethylamino)ethoxy)phenyl)prop-2-en-1-one] | 43.6 ± 6.94 µM | 1.55 ± 0.16 µM | 28.1 | 1.61 | –
CC(=O)N1N=C(c2ccc(OCCN3CCCC3)cc2)CC1c1ccc(Cl)cc1 (stereo not shown) [Compound 5d, 1–(5-(4-Chlorophenyl)-3–(4-(2-(pyrrolidin-1-yl)ethoxy)phenyl)-4,5-dihydro-1H-pyrazol-1-yl) ethan-1-one] | 108 ± 5.56 µM | 2.04 ± 0.26 µM | 52.96 | – | –
O=C(/C=C/c1ccc(Cl)cc1)c1ccc(O)cc1 [Compound 3c, 4'-Hydroxy-4-chlorochalcone] | > 500 µM | > 500 µM | – | – | –
O=C(/C=C/c1ccccc1Cl)c1ccc(OCCN2CCCC2)cc1 [Compound 4j, (E)-3–(2-chlorophenyl)-1–(4-(2-(pyrrolidin-1-yl)ethoxy)phenyl)prop-2-en-1-one] | 32.1 ± 5.71 µM | 0.81 ± 0.03 µM | 39.6 | 1.85 | –
O=C(/C=C/c1ccccc1Cl)c1ccc(O)cc1 [Compound 3a, 4'-Hydroxy-2-chlorochalcone] | > 500 µM | > 500 µM | – | – | –
O=C(/C=C/c1cccc(Cl)c1)c1ccc(OCCN2CCCCC2)cc1 [Compound 4h, (E)-3–(3-chlorophenyl)-1–(4-(2-(piperidin-1-yl)ethoxy)phenyl)prop-2-en-1-one] | 24.5 ± 6.14 µM | 1.31 ± 0.17 µM | 18.7 | 1.72 | –
CC(=O)N1N=C(c2ccc(OCCN3CCCC3)cc2)CC1c1ccccc1Cl (stereo not shown) [Compound 5b, 1–(5-(2-Chlorophenyl)-3–(4-(2-(pyrrolidin-1-yl)ethoxy)phenyl)-4,5-dihydro-1H-pyrazol-1-yl) ethan-1-one] | 29.9 ± 1.25 µM | 6.31 ± 0.16 µM | 4.74 | – | –
O=C(/C=C/c1ccccc1Cl)c1ccc(OCCN2CCCCC2)cc1 [Compound 4g, (E)-3–(2-chlorophenyl)-1–(4-(2-(piperidin-1-yl)ethoxy)phenyl)prop-2-en-1-one] | 35.6 ± 7.31 µM | 1.8 ± 0.48 µM | 19.8 | 1.75 | –
O=C(/C=C/c1ccc(Cl)cc1)c1ccc(OCCN2CCCCC2)cc1 [Compound 4i, (E)-3–(4-chlorophenyl)-1–(4-(2-(piperidin-1-yl)ethoxy)phenyl)prop-2-en-1-one] | 114 ± 26.1 µM | 0.91 ± 0.09 µM | 125.5 | 1.79 | –
O=C(/C=C/c1cccc(Cl)c1)c1ccc(OCCN2CCCC2)cc1 [Compound 4k, (E)-3–(3-chlorophenyl)-1–(4-(2-(pyrrolidin-1-yl)ethoxy)phenyl)prop-2-en-1-one] | 31.1 ± 3.41 µM | 0.28 ± 0.05 µM | 110.9 | 1.81 | –
CC(=O)N1N=C(c2ccc(OCCN3CCCCC3)cc2)CC1c1ccc(Cl)cc1 (stereo not shown) [Compound 5a, 1–(5-(4-Chlorophenyl)-3–(4-(2-(piperidin-1-yl)ethoxy)phenyl)-4,5-dihydro-1H-pyrazol-1-yl) ethan-1-one] | 97.6 ± 3.78 µM | 5.94 ± 0.27 µM | 16.4 | – | –
CCN(CC)CCOc1ccc(C(=O)/C=C/c2ccccc2Cl)cc1 [Compound 4d, (E)-3–(2-chlorophenyl)-1–(4-(2-(diethylamino)ethoxy)phenyl)prop-2-en-1-one] | 63.8 ± 9.21 µM | 5.42 ± 0.2 µM | 11.8 | 1.63 | –
O=C(/C=C/c1cccc(Cl)c1)c1ccc(O)cc1 [Compound 3b, 4'-Hydroxy-3-chlorochalcone] | > 500 µM | > 500 µM | – | – | –
CN(C)CCOc1ccc(C(=O)/C=C/c2cccc(Cl)c2)cc1 [Compound 4b, (E)-3–(3-chlorophenyl)-1–(4-(2-(dimethylamino)ethoxy)phenyl)prop-2-en-1-one] | 32.1 ± 7.16 µM | 3.76 ± 0.26 µM | 8.5 | 1.83 | –
